Results: the supplement of paper PMC4862054

Legend:
Settings in all cases: incubation time: 72 h
HCC1143 [1] = experiment: normalised response (% of control), CellTox Green; higher = less cell death (100 = DMSO, 0 = benzethonium chloride kill control)
In short: (§1)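 After 72 h with compound in 384-well plates, breast cancer cell lines seeded as 20 µl suspension were read for CellTox Green fluorescence at 485/520 nm. CellTiter-Glo luminescence was then read after 10 min at room temperature. Compound was present at 5 concentrations in 10-fold steps over a 10,000-fold range set per compound, and plates were normalised to 0.1 % DMSO (100) and a positive kill control (0). Values are normalised signals, each at a single concentration.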

MDA-MB-468 [2] = experiment: as above
In short: as §1

Hs578T [3] = experiment: as above
In short: as §1

BT-474 [4] = experiment: as above
In short: as §1

MCF-10A [5] = experiment: as above
In short: as §1

MDA-MB-436 [6] = experiment: as above
In short: as §1

HCC1937 [7] = experiment: as above
In short: as §1

MDA-MB-231 [8] = experiment: as above
In short: as §1

CAL-51 [9] = experiment: as above
In short: as §1

HCC1599 [10] = experiment: as above
In short: as §1

CAL-120 [11] = experiment: as above
In short: as §1

MDA-MB-453 [12] = experiment: as above
In short: as §1

CAL-148 [13] = experiment: as above
In short: as §1

CAL-85-1 [14] = experiment: as above
In short: as §1

MFM-223 [15] = experiment: as above
In short: as §1

BT-549 [16] = experiment: as above
In short: as §1

DU-4475 [17] = experiment: as above
In short: as §1

HCC1143 [18] = experiment: normalised response (% of control), CellTiter-Glo; higher = more viable cells (100 = DMSO, 0 = benzethonium chloride kill control)
Protocol: (§2)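 DSRT, 72 h incubation, CellTox Green / CellTiter-Glo readout. Signal is normalised to DMSO and benzethonium chloride controls. Value is the normalised response at dose 3.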

MDA-MB-468 [19] = experiment: as above
Protocol: as §2

Hs578T [20] = experiment: as above
Protocol: as §2

BT-474 [21] = experiment: as above
Protocol: as §2

MCF-10A [22] = experiment: as above
Protocol: as §2

MDA-MB-436 [23] = experiment: as above
Protocol: as §2

HCC1937 [24] = experiment: as above
Protocol: as §2

MDA-MB-231 [25] = experiment: as above
Protocol: as §2

CAL-51 [26] = experiment: as above
Protocol: as §2

HDQ-P1 [27] = experiment: as above
Protocol: as §2

HCC1599 [28] = experiment: as above
Protocol: as §2

CAL-120 [29] = experiment: as above
Protocol: as §2

MDA-MB-453 [30] = experiment: as above
Protocol: as §2

CAL-148 [31] = experiment: as above
Protocol: as §2

CAL-85-1 [32] = experiment: as above
Protocol: as §2

MFM-223 [33] = experiment: as above
Protocol: as §2

BT-549 [34] = experiment: as above
Protocol: as §2

DU-4475 [35] = experiment: as above
Protocol: as §2

SK-BR-3 = experiment: as above
Protocol: as §2

HDQ-P1 [36] = experiment: normalised response (% of control), CellTox Green; higher = less cell death (100 = DMSO, 0 = benzethonium chloride kill control)
In short: as §1

| SMILES | normalised response (HCC1143 [1]) | normalised response (MDA-MB-468 [2]) | normalised response (Hs578T [3]) | normalised response (BT-474 [4]) | normalised response (MCF-10A [5]) | normalised response (MDA-MB-436 [6]) | normalised response (HCC1937 [7]) | normalised response (MDA-MB-231 [8]) | normalised response (CAL-51 [9]) | normalised response (HCC1599 [10]) | normalised response (CAL-120 [11]) | normalised response (MDA-MB-453 [12]) | normalised response (CAL-148 [13]) | normalised response (CAL-85-1 [14]) | normalised response (MFM-223 [15]) | normalised response (BT-549 [16]) | normalised response (DU-4475 [17]) | normalised response (HCC1143 [18]) | normalised response (MDA-MB-468 [19]) | normalised response (Hs578T [20]) | normalised response (BT-474 [21]) | normalised response (MCF-10A [22]) | normalised response (MDA-MB-436 [23]) | normalised response (HCC1937 [24]) | normalised response (MDA-MB-231 [25]) | normalised response (CAL-51 [26]) | normalised response (HDQ-P1 [27]) | normalised response (HCC1599 [28]) | normalised response (CAL-120 [29]) | normalised response (MDA-MB-453 [30]) | normalised response (CAL-148 [31]) | normalised response (CAL-85-1 [32]) | normalised response (MFM-223 [33]) | normalised response (BT-549 [34]) | normalised response (DU-4475 [35]) | normalised response (SK-BR-3) | normalised response (HDQ-P1 [36]) |
| --- | --- | --- | --- | --- | --- | --- | --- | --- | --- | --- | --- | --- | --- | --- | --- | --- | --- | --- | --- | --- | --- | --- | --- | --- | --- | --- | --- | --- | --- | --- | --- | --- | --- | --- | --- | --- | --- |
| Oc1nc(-c2ccc(C(F)(F)F)cc2)nc2c1CSCC2 [XAV-939] (100 nM) | 108% | 130% | 109% | 101% | 95.1% | 102% | 104% | 100% | 90.2% | 101% | 101% | 105% | 99.6% | 111% | 96.6% | 98.8% | 102% | 104% | 92% | 101% | 93.2% | 98.5% | 102% | 92.9% | 90.9% | 77.1% | 106% | 92.3% | 96.3% | 98.2% | 101% | 99.6% | 97% | 103% | 99.8% | 99.1% | – |
| C#Cc1cccc(Nc2ncnc3cc(OCCOC)c(OCCOC)cc23)c1 [Erlotinib] (100 nM) | 114% | 118% | 75.5% | 101% | 85.9% | 98.9% | 107% | – | 111% | 104% | 95.6% | 106% | 103% | 86.2% | 103% | 93% | 102% | 102% | 90.8% | 100% | 98.3% | 65% | 102% | 99% | 118% | 105% | 74% | 102% | 98.1% | 109% | 115% | 100% | 103% | 105% | 105% | 112% | 108% |
| CCCCCCCCCCCCCCCCCCOP(=O)([O-])OC1CC[N+](C)(C)CC1 [Perifosine] (25 nM) | 89.7% | 95.6% | 105% | 102% | 106% | 112% | 88% | 92.4% | 93.7% | 97.9% | 103% | 99.7% | 103% | 109% | 93.5% | 97.1% | 104% | 101% | 100% | 100% | 101% | 105% | 104% | 103% | 105% | 96.8% | 108% | 101% | 109% | 87% | 88.8% | 98.5% | 93.4% | 101% | 96% | 91.3% | – |
| CCC(C)(C)C(=O)O[C@H]1C[C@@H](C)C=C2C=C[C@H](C)[C@H](CC[C@@H]3C[C@@H](O)CC(=O)O3)[C@H]21 [Simvastatin] (100 nM) | 91% | 94.2% | 75.5% | 97.3% | 107% | – | 68.8% | 115% | 113% | 95.1% | – | 77.8% | 99.7% | – | 102% | 59.3% | 105% | 105% | 93.7% | 102% | 97.5% | 111% | 99.7% | 99% | 98.6% | 104% | 102% | 89.2% | 100% | 95.5% | 107% | 98.9% | 105% | 94.5% | 98.4% | 105% | 78.8% |
| C=C(c1ccc(C(=O)O)cc1)c1cc2c(cc1C)C(C)(C)CCC2(C)C [Bexarotene] (100 nM) | 97.9% | 108% | 98.7% | 97% | 104% | 94.1% | 105% | – | 96.9% | 105% | 99.7% | 96.1% | 95.2% | 95.8% | 81.8% | 92.4% | 98.8% | 104% | 104% | 95.9% | 109% | 91.8% | 98% | 100% | 101% | 80.1% | 104% | 90.8% | 104% | 117% | 101% | 105% | 108% | 105% | 104% | 88.6% | 108% |
| CCC1(c2ccc(N)cc2)CCC(=O)NC1=O (stereo not given) [Aminoglutethimide] (100 nM) | 96.9% | 119% | 103% | 101% | 99.1% | 109% | 102% | 98% | 113% | 104% | 98.6% | 103% | – | 106% | 92.2% | 98% | 98.3% | 95.3% | 100% | 98.3% | 99.1% | 94.1% | 98.3% | 94.7% | 104% | 117% | 98.5% | 90.5% | 108% | 103% | 105% | 107% | 102% | 108% | 100% | 99.3% | 88.9% |
| O=C(CCCCCCC(=O)Nc1ccc([C@H]2O[C@@H](CSc3nc(-c4ccccc4)c(-c4ccccc4)o3)C[C@@H](c3ccc(CO)cc3)O2)cc1)NO [Tubacin] (100 nM) | 99% | 82.4% | 98.1% | 102% | 104% | – | 83.3% | 110% | 101% | 102% | 105% | 99.4% | 98.1% | 99.6% | 103% | 102% | 100% | 96% | 95.3% | 94.6% | 94.8% | 106% | 96.8% | 92.8% | 97% | 89.2% | 88.2% | 85.2% | 112% | 96.1% | 106% | 97.2% | 97% | 96.7% | 102% | 97.1% | 87.9% |
